Measured values from publication PMC8041284, “Tunable Methacrylamides for Covalent Ligand Directed Release Chemistry” (Journal of the American Chemical Society, 2021).
Where a SMILES comes first, the peptide text is derived from it. The star is where a group is joined. Cbz = O=C(OCc1ccccc1)*

molecular target: BTK (Homo sapiens, UniProt Q06187); assay: biochemical; settings: read-out: BTK inhibition (%)
Sequence (Q06187 402-655 limits assumed): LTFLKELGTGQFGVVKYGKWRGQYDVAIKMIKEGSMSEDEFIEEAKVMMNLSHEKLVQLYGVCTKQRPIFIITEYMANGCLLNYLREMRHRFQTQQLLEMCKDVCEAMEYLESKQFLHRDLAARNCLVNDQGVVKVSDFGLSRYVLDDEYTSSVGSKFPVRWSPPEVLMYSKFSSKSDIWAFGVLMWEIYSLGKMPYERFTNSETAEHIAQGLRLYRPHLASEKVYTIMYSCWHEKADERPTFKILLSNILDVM

In the case of `CC1(C)CC(O)CC(C)(C)N1[O]` [PCM-0095391], the inhibition at 10 µM is reported as 10.3%.

same assay, conditions: read-out: BTK inhibition (%), 0.75 uM BTK, […] probe 3l, 15 min preincubation

Compared with `CC1(C)CCC(C)(C)c2cc(NC(=O)c3ccc(C(=O)O)cc3)ccc21` [PCM-0214790], `CC(=O)c1ccc(NN=C(C(N)=O)C2=NC(C)(C)Cc3ccccc32)cc1` [PCM-0215663] is higher in inhibition at 10 µM: -18.7% for the first, 13.1% for the second.

First: CO[C@H]1/C=C\C=C(/C)C(=O)NC2=CC(=O)C(NCCN(C)C)=C(C[C@@H](C)C[C@H](OC)[C@H](O)[C@@H](C)/C=C(\C)[C@@H]1OC(N)=O)C2=O [PCM-0094961]
Second: COc1ccc([C@@H]2Sc3ccccc3N(CCN(C)C)C(=O)[C@@H]2OC(C)=O)cc1 [PCM-0065036]
The inhibition at 10 µM of the first is higher: 28.3% for the first, 17.1% for the second.

Compared with `CN1C(=O)CCS(=O)(=O)C1c1ccc(Cl)cc1` (centres unmarked) [PCM-0065261], `O=C(O)COCCN1CCN([C@H](c2ccccc2)c2ccc(Cl)cc2)CC1` [PCM-0215119] is higher in inhibition at 10 µM: -14% for the first, -6.2% for the second.

Compared with `Cc1ccc(NC(=O)c2cccc(C(C)(C)C#N)c2)cc1Nc1ccc2ncn(C)c(=O)c2c1` [PCM-0095483], `COc1ccc(Cl)c(Nc2nc3ccccc3nc2NS(=O)(=O)c2cccc(NC(=O)C(C)(C)N)c2)c1` [PCM-0215473] is lower in inhibition at 10 µM: 44.1% for the first, 24.1% for the second.

Going from `CC(C)=CCC[C@](C)(O[C@@H]1O[C@H](CO)[C@@H](O)[C@H](O)[C@H]1O)[C@H]1CC[C@]2(C)[C@@H]1[C@H](O)C[C@@H]1[C@@]3(C)CC[C@H](O)C(C)(C)[C@@H]3CC[C@]12C` [PCM-0216397] to `CC(C)=CCC[C@](C)(O[C@@H]1O[C@H](CO[C@@H]2OC[C@@H](O)[C@H](O)[C@H]2O)[C@@H](O)[C@H](O)[C@H]1O)[C@H]1CC[C@]2(C)[C@@H]1[C@H](O)C[C@@H]1[C@@]3(C)CC[C@H](O[C@@H]4O[C@H](CO)[C@@H](O)[C@H](O)[C@H]4O[C@@H]4O[C@H](CO)[C@@H](O)[C@H](O)[C@H]4O)C(C)(C)[C@@H]3CC[C@]12C` [PCM-0216464], the inhibition at 10 µM falls from 11.6% to 4.6%.

First: CN1CC(O)c2cc(N=NC(N)=O)c(O)cc21 (centres unmarked) [PCM-0216016]
Second: O=C(O)c1cc(O)cc(Cl)c1 [PCM-0216556]
The inhibition at 10 µM of the first is higher: 28.3% for the first, -10% for the second.

Compared with `O=C(c1ccc(Oc2ccccc2)cc1Cl)c1c[nH]c2ncnc(N[C@@H]3CC[C@@H](CO)OC3)c12` [PCM-0216245], `O=C(Nc1cccnc1)N1CCC(Cc2cccc(Oc3ccc(C(F)(F)F)cn3)c2)CC1` [PCM-0095330] is lower in inhibition at 10 µM: 116% for the first, -4.8% for the second.

Going from `Cc1ccc([C@@H]2O[C@H](CO)[C@@H](O)[C@H](O)[C@H]2O)cc1Cc1ccc(-c2ccc(F)cc2)s1` [PCM-0095519] to `COc1cc(C2Oc3ccc([C@H]4Oc5cc(O)cc(O)c5C(=O)[C@@H]4O)cc3OC2CO)ccc1O` (some centres unmarked) [PCM-0216498], the inhibition at 10 µM rises from 7.6% to 21.6%.

Compared with `CC(C)(C)c1[nH]cnc1/C=c1\[nH]c(=O)/c(=C/c2ccccc2)[nH]c1=O` [PCM-0095681], `CC(C)(C)C(=O)N1N=CC[C@H]1c1ccccc1` [PCM-0216112] is higher in inhibition at 10 µM: -2.1% for the first, 13.8% for the second.

Compared with `Cn1cc(-c2ccncc2)c(-c2ccc(OCc3ccc4ccccc4n3)cc2)n1` [PCM-0095695], `NC1(c2ccc(-c3nc4ccn5c(=O)[nH]nc5c4cc3-c3ccccc3)cc2)CCC1` [PCM-0095042] is higher in inhibition at 10 µM: -33.5% for the first, -2.8% for the second.

Going from `CCC(=O)N1CCN(c2ccc(-n3c(=O)ccc4cnc5ccc(-c6cnc7ccccc7c6)cc5c43)cc2C(F)(F)F)CC1` [PCM-0095455] to `CC(C)(C)c1nc(-c2ccc(NC(=O)Nc3cccc(C(F)(F)F)c3)c3ccccc23)c2c(N)nccn12` [PCM-0216026], the inhibition at 10 µM rises from -25.5% to 79.3%.

Compared with `C=CC(=O)Nc1cc(N2CCN(CC)CC2)ccc1Nc1cc(N(C)C(=O)Nc2c(Cl)c(OC)cc(OC)c2Cl)ncn1` [PCM-0215942], `COc1ccc(-c2nc(N3CCOCC3)c3sc(CN(C)c4ncc(C(=O)NO)cn4)cc3n2)cn1` [PCM-0095517] is lower in inhibition at 10 µM: 19.3% for the first, 15.2% for the second.

Compared with `COc1c(C)c(C(=O)c2ccc(N)c(C(=O)O)c2)n2ccccc12` [PCM-0215263], `CC(C(=O)O)c1cccc(C(=O)c2ccccc2)c1` (centres unmarked) [PCM-0065500] is lower in inhibition at 10 µM: 17.2% for the first, -17.9% for the second.

Compared with `COc1cc2c(cc1OC)CC(=O)N(CCCN(C)C[C@H]1Cc3cc(OC)c(OC)cc31)CC2` [PCM-0095255], `COc1ccc(C[C@@H]2c3cc(Oc4cc(C[C@@H]5c6cc(O)c(OC)cc6CCN5C)ccc4O)c(OC)cc3CCN2C)cc1` [PCM-0216496] is higher in inhibition at 10 µM: -3.1% for the first, 16.2% for the second.

Going from `CCC/C=C1\OC(=O)C2=C1CCC=C2` [PCM-0216295] to `C=C1CC[C@H]2C(=C)CC[C@H]3C(=C)C(=O)O[C@@H]3[C@@H]12` [PCM-0214878], the inhibition at 10 µM rises from 14.7% to 32.7%.

Going from `Cn1c(=O)c(Oc2ccc(F)cc2F)cc2cnc(NC(CCO)CCO)nc21` [PCM-0215718] to `Cc1ccc(-n2nc(C(C)(C)C)cc2NC(=O)NCc2cc(F)ccc2Oc2ccc3c(cnn3CCO)c2)cc1` [PCM-0215475], the inhibition at 10 µM rises from -30.3% to 28.3%.

Compared with `Cc1c(CN2CCC(Nc3ncnc4sc(CC(F)(F)F)cc34)CC2)ccc2[nH]c(C#N)cc12` [PCM-0215775], `CN(C)CCc1c[nH]c2ccc(CS(=O)(=O)N3CCCC3)cc12` [PCM-0090415] is lower in inhibition at 10 µM: 32.4% for the first, -0.8% for the second.

Compared with `CC(C)C[C@@H](C=O)NC(=O)[C@H](CC(C)C)NC(=O)[C@H](CC(C)C)NC(=O)OCc1ccccc1` [PCM-0095809] (Cbz-Leu-Leu-Leu-aldehyde), `O=C(NO)c1cccc(C(=O)NCCc2ccccc2)c1` [PCM-0215456] is higher in inhibition at 10 µM: 5.4% for the first, 10% for the second.

First: Cc1c(C(=O)C=Cc2ccccc2)[n+](=O)c2ccccc2n1[O-] [PCM-0216007]
Second: Cc1ccc(-c2csc(NC(=O)c3ccccc3)n2)c(C)c1 [PCM-0215320]
The inhibition at 10 µM of the first is lower: -6.9% for the first, 60.2% for the second.

First: CC(C)COc1ccc(CNC(=O)N(Cc2ccc(F)cc2)C2CCN(C)CC2)cc1 [PCM-0215604]
Second: CCCCN(Cc1ccc(C(=O)NO)cc1)C(=O)Nc1ccccc1 [PCM-0215294]
The inhibition at 10 µM of the first is lower: -3.9% for the first, 23.9% for the second.

Going from `NNC(=O)c1ccncc1` [PCM-0085769] to `O=C(NCCO[N+](=O)[O-])c1cccnc1` [PCM-0085806], the inhibition at 10 µM falls from 2.3% to -5.4%.

Compared with `C=C[C@]1(C)C[C@@H](OC(=O)CSC2C[C@H]3CC[C@@H](C2)N3C)[C@]2(C)[C@H](C)CC[C@]3(CCC(=O)[C@H]32)[C@@H](C)[C@@H]1O` (some centres unmarked) [PCM-0095603], `CC(C)(O)[C@H]1CC[C@@](C)([C@H]2[C@@H](O)C[C@@]3(C)[C@@H]4C[C@H](O)[C@H]5C(C)(C)[C@@H](O)CC[C@@]56C[C@@]46CC[C@]23C)O1` [PCM-0215043] is lower in inhibition at 10 µM: 3.9% for the first, -14.8% for the second.

Going from `Nc1ccc(F)cc1NC(=O)c1ccc(CNC(=O)/C=C/c2cccnc2)cc1` [PCM-0215868] to `Cn1cc(/C=C/C(=O)c2cccc(F)c2)cc1/C=C/C(=O)NO` [PCM-0095164], the inhibition at 10 µM rises from -5.4% to 34.2%.

Going from `COc1ccccc1OCC(O)CO` (centres unmarked) [PCM-0086515] to `CC(=O)Oc1cc(C)c(OC(C)=O)c2ccccc12` [PCM-0215056], the inhibition at 10 µM falls from -2.3% to -25.7%.

Compared with `CN[C@@H]1[C@@H](O[C@H]2O[C@H](CO)[C@@H](N)[C@H](O)[C@H]2O)O[C@H]2C[C@@H](N)[C@@H](O[C@H]3[C@H](O)[C@@H](O)[C@H](N)C[C@@H]3N)O[C@@H]2[C@@H]1O` [PCM-0215222], `COC(=O)C1=CO[C@@H](O[C@@H]2O[C@H](CO)[C@@H](O)[C@H](O)[C@H]2O)[C@H]2[C@@H]1C(=O)C[C@@H]2C` [PCM-0216534] is lower in inhibition at 10 µM: 8.5% for the first, 6.9% for the second.

Going from `Nc1ncnc2n[nH]c(Nc3ccc(F)cc3)c12` [PCM-0095728] to `Oc1ccc(Nc2nc(-c3ccc(Cl)cc3)cs2)cc1` [PCM-0095692], the inhibition at 10 µM rises from 37.9% to 84.8%.

Compared with `CC(=O)N1CCN(c2ccc(OC[C@@H]3CO[C@@](Cn4ccnc4)(c4ccc(Cl)cc4Cl)O3)cc2)CC1` [PCM-0065423], `Nc1nc(NCCNc2ncc(-n3ccnc3)c(-c3ccc(Cl)cc3Cl)n2)ccc1[N+](=O)[O-]` [PCM-0095481] is higher in inhibition at 10 µM: -29.8% for the first, 20.7% for the second.

First: C[C@H]1CCC/C=C/[C@@H]2C[C@H](O)C[C@H]2[C@H](O)/C=C/C(=O)O1 [PCM-0095573]
Second: C[C@@H]1CCC=C2C(=O)C[C@H]3OOC(C)(C)[C@H]3[C@]21C [PCM-0216386]
The inhibition at 10 µM of the first is lower: 0.8% for the first, 7.7% for the second.

Compared with `C/C=C(\C)C(=O)O[C@H]1[C@H](OC(C)=O)[C@@]2(CO)C(CC1(C)C)C1=CCC3[C@@]4(C)CCC(O[C@@H]5O[C@H](C(=O)O)[C@@H](O[C@@H]6O[C@H](CO)[C@@H](O)[C@H](O)[C@H]6O)[C@H](O)[C@H]5O[C@@H]5O[C@H](CO)[C@@H](O)[C@H](O)[C@H]5O)[C@](C)(CO)C4CC[C@@]3(C)[C@]1(C)C[C@H]2O` (some centres unmarked) [PCM-0214843], `COc1cc(C[C@@H](COC2OC(CO)C(O)C(O)C2O)[C@@H](COC2OC(CO)C(O)C(O)C2O)Cc2ccc(O)c(OC)c2)ccc1O` (some centres unmarked) [PCM-0214976] is lower in inhibition at 10 µM: 3.4% for the first, 2.3% for the second.

Compared with `Cc1cc(C)c(CN2CCc3c(Cl)cc(-c4c(C)noc4C)c(Cl)c3C2=O)c(=O)[nH]1` [PCM-0215872], `CNc1ncc2cc(-c3cc(NC(=O)NCCC(C)(C)C)c(F)cc3C)c(C)nc2n1` [PCM-0215477] is higher in inhibition at 10 µM: -8.5% for the first, 40.9% for the second.

Going from `O=c1cc(-c2ccccc2)oc2cc(O)cc(O)c12` [PCM-0088446] to `COc1ccc(-c2ccc3cc(C(=O)O)ccc3c2)cc1C12CC3CC(CC(C3)C1)C2` [PCM-0090276], the inhibition at 10 µM falls from 34.2% to 29%.

Compared with `CCN(CC)CCCCNc1ncc2cc(-c3cc(OC)cc(OC)c3)c(NC(=O)NC(C)(C)C)nc2n1` [PCM-0095037], `CC[C@@H](N)CNc1ccnc(-c2cc(-c3cnn(C)c3)ccc2O)n1` [PCM-0215825] is higher in inhibition at 10 µM: -9% for the first, 2.8% for the second.

Compared with `COC1(c2sc3c(N4CCOCC4)nc(-c4cnc(N)nc4)nc3c2C)COC1` [PCM-0215460], `Cc1cc(Nc2cc(N)ncn2)c(=O)n2c1C(=O)NC21CCCCC1` [PCM-0203357] is lower in inhibition at 10 µM: 33.8% for the first, 6.9% for the second.

Going from `O=C1C(c2[nH]c3ccc(S(=O)(=O)O)cc3c2O)=Nc2ccc(S(=O)(=O)O)cc21` [PCM-0216597] to `CS(=O)(=O)c1ccc([C@@H](O)[C@@H](CO)NC(=O)C(Cl)Cl)cc1` [PCM-0085804], the inhibition at 10 µM falls from 23.9% to -8.6%.

First: CNCCC(Oc1ccc(C(F)(F)F)cc1)c1ccccc1 (centres unmarked) [PCM-0065327]
Second: C[N+](C)(C)CCOP(=O)([O-])OC[C@H](O)CO [PCM-0216043]
The inhibition at 10 µM of the first is lower: -7.8% for the first, 1.7% for the second.
